Measured values published in patent US10772887B2, “Anti-HTLV-1 drug and therapeutic agent for HTLV-1-associated myelopathy/tropical spastic paraparesis (HAM/TSP)” (Kagoshima University, priority 2016, dated 2020).
“And” between values parts separate entries of the source, which are not always exact repeats. Equal entries are not always repeated.

What was measured:
[1] = tested on: HTLV-1 pX (proviral load) in live cells of PBMCs from HAM cases; experiment: PMA-HTLV-1 viability PCR, PBMCs from HAM cases; assay type: cell-based; design: key to ΔCτ Drug Mean: ΔCτ = CτD−P+ − CτD+P+ (Cτ shift by drug, PMA-treated); details: N=16
Method: PBMCs from 16 HAM cases frozen and preserved in liquid nitrogen were used.
A PMA stock solution (20 mM, frozen and preserved at −20° C. under light protection) was added to cell samples to yield a final concentration of 50 μM, and the tubes were incubated in a dark place (wrapped in aluminum foil) at room temperature for 5 minutes (each tube was sometimes flicked by fingers for mixing).
A photo-crosslinker and a halogen lamp were always used to perform photo-crosslinking using a household 100-V AC power source. The cell specimen volume was adjusted by appropriately adding PBS to 200 μL and irradiation was carried out for 5 minutes at a position 20 cm away from the halogen lamp in the dark. […] Each sample tube was sometimes flicked by fingers for mixing
Frozen PBMC specimens were thawed in a water bath at 37° C. and washed twice with PBS at 300×g, and then, the pellet was suspended in 1 mL of PBS and placed on ice. The cell concentration was counted by the trypan blue exclusion method using a hemocytometer.
Approximately 5×10^5 to 1×10^6 cells were collected in two Eppendorf tubes and the solution volume was adjusted to 200 μL by adding PBS if appropriate. One of the tubes was subjected to PMA treatment and photo-crosslinking, and the other tube was not treated in the same manner. DNA was extracted from both tubes using DNeasy Blood & Tissue Kits (QIAGEN).
To the remaining liquid of the cell suspension of each cell specimen, approximately 7.5 mL of cell medium RPMI1640 (supplemented with 10% of fetal calf serum and 1% of penicillin-streptomycn) was added to adjust the total volume to 8.0 mL+α. Each mixture was plated in a volume of approximately 2000 μL on a 6-well polystyrene plate such that 4 wells were used per cell specimen.
After adding the drug, each mixture was gently shaken on a shaker and incubation was started at 37° C. in a 5% CO2 incubator.
At T=6 h, about a half volume of the cell suspension of each well was harvested, collected in an Eppendorf tube, and centrifuged at 3,500 rpm×10 min. The supernatant was discarded, and the pellet was resuspended with 1 mL of PBS. Centrifugation was performed again at 3,500 rpm×10 min, and the supernatant was discarded, followed by washing. PBS was added to yield a volume of 200 μL, and all specimens were subjected to PMA treatment and photo-crosslinking. Subsequently, the specimens were washed with PBS again, and DNA was extracted with DNeasy Blood & Tissue Kits (QIAGEN).
The procedures were performed as in the case of T=6 h described in (1-2-5) above. DNA samples were named, for example, “Sample No-Imatinib600 nM-12 h.”
The DNA concentration was measured by ND-1000 (Thermo Fisher Scientific), and DNA was prepared in an amount (10 ng/μL×triplicate or more) sufficient for real-time PCR to be performed in triplicate. DNA was frozen and preserved at −20° C. until use.
According to the protocol (for the PCR system of 25 μL in total) of TaqMan Universal Master Mix II (#4440044, Thermo Fisher Scientific), 20 μM forward and reverse primers, 8 μM TaqMan probes, 2× Universal Master Mix II, and D2 W were mixed. The mixture was pipetted in a volume of 25 μL into each of triplicate wells of a MicroAmp Fast 96-well Reaction Plate (0.1 mL) (REF 4346907, Applied Biosystems) provided with MicroAmp Optical Adhesive Film (P/N 4311971, Applied Biosystems).
A standard dilution series for standard curve creation was prepared from the following five points for pX: NTC (No Template Control); 2 copies/μL (10 copies at 5 μL); 20 copies/μL (100 copies at 5 μL); 200 copies/μL (1000 copies at 5 μL); and […] (10000 copies at 5 μL).
The thermal cycle program was carried out using the StepOne Plus real-time PCR system (Applied Biosystems) and StepOne software ver. 2.3 with 1 cycle in a holding stage at 50° C.×2 minutes and 95° C.×10 minutes and 45 cycles of amplification at 95° C.×15 seconds and 60° C.×1 minute.
Index of the Cτ extension effect by ABL1 inhibitor treatment: ΔCτDrug=CτD−P+−CτD+P+ [Formula 3]

[2] = tested on: HTLV-1 pX (proviral load) in live cells of PBMCs from AC-derived cases; experiment: PMA-HTLV-1 viability PCR, PBMCs from AC-derived cases; assay type: cell-based
Method: PBMCs (1×10^7 cells) from 14 AC-derived cases frozen and preserved in liquid nitrogen were used.
Specimens frozen and preserved in liquid nitrogen were thawed in a water bath at 37° C. and washed twice with approximately 10 mL of PBS at 300×g during centrifugation for 10 minutes, and resuspended in 1 mL of PBS. The cell concentration was counted by the trypan blue exclusion method. Thereafter, each specimen was divided into two groups such that each group includes approximately 100,000 PBMCs. One of the groups was not subjected to PMA treatment, and the other group was subjected to PMA treatment. The sample groups were named “Sample No-Drug-P−” and “Sample No-Drug-P+,” respectively.
A PMA stock solution was added to the sample named “Sample No-Drug-P+” to yield a final concentration of 50 μM in the manner described in Example 2, occasionally shaken under light protection at room temperature for 5 minutes for PMA treatment, and treated with a photo-crosslinker under a halogen lamp for crosslinking during air-cooling for 5 minutes. Genomic DNA was extracted from both samples including the former sample which was not subjected to PMA treatment using DNeazy Blood & Tissue Kits (Cat No 69504, QIAGEN).
RPMI1640 (supplemented with 10% fetal bovine serum, 1% penicillin, and streptomycin) in a volume of 7 mL+α was added to the cell suspension remaining after preparing the two samples in (4-1-2), followed by vortexing. […] After mixing with a shaker for a short period of time, the cells were cultured in a 5% CO2 incubator.
After T=6 h, each specimen was subjected to PMA treatment and crosslinking, and then, genomic DNA was extracted therefrom according to the method described in Example 2.
PMA treatment and DNA extraction were carried out according to the method described in Example 2. Accordingly, 10 samples of genomic DNA from each AC sample to be tested, that is to say, 140 samples from 14 specimens, were prepared.
In this Example, the methods described in Example 2 were used for DNA concentration measurement, working solution preparation, real-time PCR, and the method for calculating PMA-HTLV-1 viability PCR indexes.
All samples were examined at N=14.

[3] = tested on: HTLV-1 proviral load (PVL); experiment: Peripheral blood PVL before and after oral imatinib in an anti-HTLV-1 antibody-positive CML patient with HAM; assay type: in vivo, human; details: 2844 copies before drug administration, one patient
NC-derived CD4+ T cells = details: 5 μM, 24-hour treatment, FIG. 2 A/B
[4] = tested on: HAM-derived non-CD4-PBMCs; details: 5 μM, 24-hour treatment, FIG. 2 C/D
NC-derived non-CD4-PBMCs = details: 5 μM, 24-hour treatment, FIG. 2 C/D
[5] = read-out: Cmax concentration; based on package inserts / in vivo dynamics data; concentration examined in terms of Cmax; cited from earlier work

In the case of `Cc1ccc(NC(=O)c2ccc(CN3CCN(C)CC3)cc2)cc1Nc1nccc(-c2cccnc2)n1` [imatinib], the “pX decrease rate in live cells (%) Mean” value ([1]; Imatinib 600 nM, 6 h) is reported as 50.35%, the “ΔCτ Drug Mean” value ([1]; Imatinib 600 nM, 6 h) is reported as −1.30 and the “pX decrease rate in live cells (%) Mean” value ([1]; Imatinib 600 nM, 12 h) is reported as 66.37%. The “ΔCτ Drug Mean” value ([1]; Imatinib 600 nM, 12 h) was −1.96, the “pX decrease rate in live cells (%) Mean” value ([1]; Imatinib 5 μM, 6 h) was 43.37% and the “ΔCτ Drug Mean” value ([1]; Imatinib 5 μM, 6 h) was −0.99. The “pX decrease rate in live cells (%) Mean” value ([1]; Imatinib 5 μM, 12 h) was 44.99%, the “ΔCτ Drug Mean” value ([1]; Imatinib 5 μM, 12 h) was −1.49 and the “pX decrease rate in live cells (%) Mean” value ([2]; Imatinib 600 nM, 6 h, N=14) was 23.83%. For the same compound, the “ΔCτ Drug Mean” value ([2]; Imatinib 600 nM, 6 h, N=14) was −0.28, the “pX decrease rate in live cells (%) Mean” value ([2]; Imatinib 600 nM, 12 h, N=14) was “approximately 45%” and the “ΔCτ Drug Mean” value ([2]; Imatinib 600 nM, 12 h, N=14) was −0.98. The “pX decrease rate in live cells (%) Mean” value ([2]; Imatinib 600 nM, 12 h, N=14, listed as Imatinib) was 45.46%, the “pX decrease rate in live cells (%) Mean” value ([2]; Imatinib 5 μM, 6 h, N=14) was 51.65% and the “ΔCτ Drug Mean” value ([2]; Imatinib 5 μM, 6 h, N=14) was −1.45. The “pX decrease rate in live cells (%) Mean” value ([2]; Imatinib 5 μM, 12 h, N=14) was 58.25%, the “peripheral blood PVL” value ([3]; 1 year and 5 months after drug administration) was 448 copies/10^4 PBMCs and the “peripheral blood PVL” value ([3]; after 5 months of drug administration, oral 400 then 300 mg/day) was 1138 copies.

With `Cc1cn(-c2cc(NC(=O)c3ccc(C)c(Nc4nccc(-c5cccnc5)n4)c3)cc(C(F)(F)F)c2)cn1` [nilotinib] the “pX decrease rate in live cells (%) Mean” value ([1]; Nilotinib 30 nM, 6 h) was 69.51%, the “ΔCτ Drug Mean” value ([1]; Nilotinib 30 nM, 6 h) was −2.03 and the “pX decrease rate in live cells (%) Mean” value ([1]; Nilotinib 30 nM, 12 h) was 78.00%. For the same compound, the “ΔCτ Drug Mean” value ([1]; Nilotinib 30 nM, 12 h) was −2.63, the “pX decrease rate in live cells (%) Mean” value ([1]; Nilotinib 3 μM, 6 h) was 53.82% and the “ΔCτ Drug Mean” value ([1]; Nilotinib 3 μM, 6 h) was −0.86. For the same compound, the “pX decrease rate in live cells (%) Mean” value ([1]; Nilotinib 3 μM, 12 h) was 36.19%, the “ΔCτ Drug Mean” value ([1]; Nilotinib 3 μM, 12 h) was −1.46 and the “pX decrease rate in live cells (%) Mean” value ([2]; Nilotinib 30 nM, 6 h, N=14) was 53.23%. The “ΔCτ Drug Mean” value ([2]; Nilotinib 30 nM, 6 h, N=14) was −1.26, the “pX decrease rate in live cells (%) Mean” value ([2]; Nilotinib 30 nM, 12 h, N=14) was ~71% and 71.38% and the “ΔCτ Drug Mean” value ([2]; Nilotinib 30 nM, 12 h, N=14) was −1.56. For the same compound, the “pX decrease rate in live cells (%) Mean” value ([2]; Nilotinib 30 nM, 12 h, N=14, listed as Nilotinib) was 71.38%, the “pX decrease rate in live cells (%) Mean” value ([2]; Nilotinib 3 μM, 6 h, N=14) was 50.50% and the “ΔCτ Drug Mean” value ([2]; Nilotinib 3 μM, 6 h, N=14) was −1.05. For the same compound, the “pX decrease rate in live cells (%) Mean” value ([2]; Nilotinib 3 μM, 12 h, N=14) was 58.56%, the “ΔCτ Drug Mean” value ([2]; Nilotinib 3 μM, 12 h, N=14) was −1.36 and the “cell death of HAM-derived CD4+ T cells” value (HAM-derived CD4+ T cells) was “cause cell death to occur”. For the same compound, the “cell death of NC-derived CD4+ T cells” value (NC-derived CD4+ T cells) was “cell death does not occur”, the “cell death of non-CD4-PBMCs, HAM” value [4] was “significantly observed” and the “cell death of non-CD4-PBMCs, NC” value (NC-derived non-CD4-PBMCs) was “significantly observed”. For the same compound, the Cmax [5] was 3000 nM.
